Results published in patent US20240210412A1, “SULFONYL-TRIAZOLE COMPOUNDS USEFUL AS LIGANDS AND INHIBITORS OF PROSTAGLANDIN REDUCTASE 2” (University of Virginia Patent Foundation, priority 2021, published 2024).

Key:
Assay in all cases: SILAC LC-MS ABPP
Details in all cases: 25 μM 2 h, live DM93 cells
P28482 = target: T1, P28482 (Homo sapiens, UniProt P28482); type: cell-based
T1 construct: endogenous in cells; host or cells: DM93 (SILAC)
In short: (§1)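 Ligand engagement is measured as loss of HHS-475 probe labelling at specific tyrosines. SILAC DM93 melanoma cells were treated in situ (25 μM ligand vs DMSO, 2 h, 37 °C; then 100 μM probe, 2 h), and modified peptides were quantified by high-resolution LC-MS/MS after desthiobiotin tagging and avidin capture.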

P13674 = target: T2, P13674 (Homo sapiens, UniProt P13674); type: cell-based
T2 construct: endogenous in cells; host or cells: DM93 cells (SILAC)
In short: as §1

Q9BWD1 = target: T3, Q9BWD1 (Homo sapiens, UniProt Q9BWD1); type: cell-based
T3 construct: endogenous in cells; host or cells: DM93 cells (SILAC), treated live; soluble proteome analysed
In short: as §1

Q92974 = target: T4, Q92974 (Homo sapiens, UniProt Q92974); type: cell-based
T4 construct: endogenous in cells; host or cells: DM93 cells (SILAC), live-cell treatment
In short: as §1

Q9HCH5 = target: T5, Q9HCH5 (Homo sapiens, UniProt Q9HCH5); type: cell-based
T5 construct: endogenous in cells; host or cells: DM93 cells (SILAC), treated live; soluble proteome analysed
In short: as §1

P26599 = target: T6, P26599 (Homo sapiens, UniProt P26599); type: cell-based
T6 construct: endogenous in cells; host or cells: DM93 (SILAC)
In short: as §1

A6NKT7 = type: cell-based, human
Description: (§2) Cells were grown to 90-95% confluence before being washed once with warm, sterile DPBS (1×, 5 mL), followed by addition of 10 mL of serum-free media (supplemented with 1% L-glutamine) containing either DMSO or SuTEx fragment (in DMSO) was added. Light cells were treated with DMSO vehicle while the heavy cells were treated with DMSO or SuTEx fragment (in DMSO) and incubated for 2 hrs. After 2 hrs, the cells were treated with SuTEx alkyne probe (HHS475, 10 μL of 1000× DMSO stock) and incubated for an additional 2 hrs. The media was aspirated and cells washed with cold PBS (5 mL) and harvested. Cells were spun at 500×g for 5 min at 4° C. followed by removal of supernatant. Pellets were resuspended in 1 mL of cold DPBS and spun at 1,400×g for 3 min at 4° C. followed by removal of supernatant. The cells were lysed in PBS by sonication and fractionated (100,000×g, 45 min, 4° C.).The light and heavy soluble fractions were diluted to 2.3 mg/mL in PBS and 432 μL were used for analysis (1 mg total protein). The probe-modified proteomes were conjugated to desthiobiotin-PEG3-azide (10 μl of 10 mM stock in DMSO; 200 μM final concentration) using TCEP (10 μl of fresh 50 mM stock in water, 1 mM final concentration), TBTA ligand (33 μl of a 1.7 mM 4:1 t-butanol/DMSO stock, 100 μM final concentration) and CuSO4 (10 μl of 50 mM stock, 1 mM final concentration). Samples were vortexed to mix and incubated for 1 hr at room temperature. The heavy and light proteomes were mixed 1:1 and the subsequent steps, including LC-MS/MS data analysis, were performed as previously described^[8a].
(§3) Coupling cell-based screens with chemical proteomics can facilitate the identification of target protein and binding sites that engage and are irreversibly modified by covalent ligands^[12]. In these assays, covalent ligands block SuTEx activity-based probe (ABP) labeling at protein sites, and the competition of probe labeling can be used to quantify potency and selectivity across the proteome^[10a]. To facilitate quantitative chemical proteomics, DM93 melanoma cells were cultured using stable isotopic labeling by amino acids in cell culture (SILAC)^[13]. Cells cultured in “light” media were treated with dimethyl sulfoxide (DMSO) vehicle while cells cultured in “heavy” media were treated with SuTEx ligand (25 μM, 2 hours, 37° C.). Next, cells were treated with HHS-475 probe (100 μM, 2 hours, 37° C.) followed by lysis and processing of proteomes for analysis. Probe-modified proteins from the soluble fraction were conjugated to a desthiobiotin-azide tag by copper-catalyzed azide-alkyne cycloaddition (CuAAC)^[14] followed by mixing of the light and heavy proteomes. The combined proteomes were digested with trypsin protease to produce probe-modified peptides, followed by enrichment and purification by avidin affinity chromatography. Probe-modified peptides were resolved, identified, and quantified by high-resolution liquid chromatography-tandem mass spectrometry (LC-MS/MS). Resultant data were analyzed as previously described^[8a, 10a]. Table 2, below, lists sites of modification targeted by sulfonyl-triazole compounds HHS-0101, HHS-0201, HHS-0301, HHS-0401, and HHS-0701. The format of the table is as follows: protein Uniprot accession number (see uniprot.org); tyrosine site (amino acid position) modified; treatment (sulfonyl-triazole compound identification number, followed by Y (where if multiple compounds modify the same site, the compounds are separated by vertical lines).

Q5VTE0 = type: cell-based, human
Description: as §2, §3

Q6IS14 = type: cell-based, human
Description: as §2, §3

Q9UPP1 = target: T7, Q9UPP1 (Homo sapiens, UniProt Q9UPP1); type: cell-based
T7 construct: endogenous in cells; host or cells: DM93 cells (SILAC)
In short: as §1

P07814 = target: T8, P07814 (Homo sapiens, UniProt P07814); type: cell-based
T8 construct: endogenous in cells; host or cells: DM93 cells (SILAC)
In short: as §1

Q8NFI4 = type: cell-based, human
Description: as §2, §3

Q9H3P2 = target: T9, Q9H3P2 (Homo sapiens, UniProt Q9H3P2); type: cell-based
T9 construct: endogenous in cells; host or cells: DM93 cells (SILAC), treated live; soluble proteome analysed
In short: as §1

O95453 = target: T10, O95453 (Homo sapiens, UniProt O95453); type: cell-based
T10 construct: endogenous in cells; host or cells: DM93 cells (SILAC)
In short: as §1

P51003 = target: T11, P51003 (Homo sapiens, UniProt P51003); type: cell-based
T11 construct: Probe-modified proteins from the soluble fraction were conjugated to a desthiobiotin-azide tag; endogenous in cells; host or cells: DM93 cells (SILAC)
In short: as §1

Q8N0Y7 = type: cell-based, human
Description: as §2, §3

O15523 = type: cell-based, human
Description: as §2, §3

P43490 = target: T12, P43490 (Homo sapiens, UniProt P43490); type: cell-based
T12 construct: endogenous in cells; host or cells: DM93 cells (SILAC)
In short: as §1

Q9BTC8 = target: T13, Q9BTC8 (Homo sapiens, UniProt Q9BTC8); type: cell-based
T13 construct: endogenous in cells; host or cells: DM93 cells (SILAC), treated live; soluble proteome analysed
In short: as §1

Q92889 = target: T14, Q92889 (Homo sapiens, UniProt Q92889); type: cell-based
T14 construct: endogenous in cells; host or cells: DM93 cells (SILAC), live-cell treatment
In short: as §1

Q9Y5K3 = type: cell-based, human
Description: as §2, §3

T5 sequence (Q9HCH5 whole entry): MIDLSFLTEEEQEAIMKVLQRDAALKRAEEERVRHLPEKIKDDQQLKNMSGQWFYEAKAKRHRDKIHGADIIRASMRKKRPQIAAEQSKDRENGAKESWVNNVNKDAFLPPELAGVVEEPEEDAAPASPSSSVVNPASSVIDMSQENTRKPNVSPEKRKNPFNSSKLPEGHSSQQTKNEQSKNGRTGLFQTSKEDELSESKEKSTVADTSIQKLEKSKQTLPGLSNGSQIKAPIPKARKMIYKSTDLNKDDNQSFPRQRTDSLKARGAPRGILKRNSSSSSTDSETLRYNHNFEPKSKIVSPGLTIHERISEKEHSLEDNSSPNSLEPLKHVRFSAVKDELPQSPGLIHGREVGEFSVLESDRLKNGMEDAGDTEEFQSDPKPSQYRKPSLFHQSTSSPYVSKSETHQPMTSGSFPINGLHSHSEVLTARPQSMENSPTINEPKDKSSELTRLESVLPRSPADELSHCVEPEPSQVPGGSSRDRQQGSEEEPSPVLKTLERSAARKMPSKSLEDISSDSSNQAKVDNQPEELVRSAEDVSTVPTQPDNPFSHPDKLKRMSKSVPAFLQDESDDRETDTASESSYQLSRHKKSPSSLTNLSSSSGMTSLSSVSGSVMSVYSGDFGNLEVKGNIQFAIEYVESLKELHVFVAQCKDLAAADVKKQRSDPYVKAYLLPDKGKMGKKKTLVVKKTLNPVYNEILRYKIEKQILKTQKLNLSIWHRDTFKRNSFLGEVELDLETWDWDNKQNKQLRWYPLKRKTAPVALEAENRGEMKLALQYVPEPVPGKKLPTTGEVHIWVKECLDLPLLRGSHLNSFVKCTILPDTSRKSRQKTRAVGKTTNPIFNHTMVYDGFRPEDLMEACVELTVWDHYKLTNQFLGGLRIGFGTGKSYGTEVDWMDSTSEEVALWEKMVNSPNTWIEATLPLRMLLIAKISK
T11 sequence (P51003 whole entry): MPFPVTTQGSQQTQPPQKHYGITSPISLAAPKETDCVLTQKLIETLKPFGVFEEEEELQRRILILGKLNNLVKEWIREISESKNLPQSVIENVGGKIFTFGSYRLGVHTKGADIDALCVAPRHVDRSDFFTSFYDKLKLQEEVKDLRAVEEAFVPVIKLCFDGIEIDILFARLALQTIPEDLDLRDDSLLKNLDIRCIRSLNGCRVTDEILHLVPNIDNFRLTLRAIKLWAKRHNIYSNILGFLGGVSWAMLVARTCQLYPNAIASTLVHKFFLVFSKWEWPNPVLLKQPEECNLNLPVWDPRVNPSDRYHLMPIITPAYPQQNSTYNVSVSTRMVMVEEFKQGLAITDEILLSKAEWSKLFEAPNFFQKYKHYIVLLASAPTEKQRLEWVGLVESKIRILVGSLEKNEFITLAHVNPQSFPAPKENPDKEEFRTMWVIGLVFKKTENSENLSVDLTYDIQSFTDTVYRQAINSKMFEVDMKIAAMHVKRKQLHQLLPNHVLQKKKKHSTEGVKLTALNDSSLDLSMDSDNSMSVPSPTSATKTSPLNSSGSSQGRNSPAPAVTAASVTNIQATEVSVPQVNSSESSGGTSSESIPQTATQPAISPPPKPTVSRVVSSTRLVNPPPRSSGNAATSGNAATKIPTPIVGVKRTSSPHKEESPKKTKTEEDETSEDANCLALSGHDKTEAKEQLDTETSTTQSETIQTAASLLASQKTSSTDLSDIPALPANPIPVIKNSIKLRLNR
T10 sequence (O95453 whole entry): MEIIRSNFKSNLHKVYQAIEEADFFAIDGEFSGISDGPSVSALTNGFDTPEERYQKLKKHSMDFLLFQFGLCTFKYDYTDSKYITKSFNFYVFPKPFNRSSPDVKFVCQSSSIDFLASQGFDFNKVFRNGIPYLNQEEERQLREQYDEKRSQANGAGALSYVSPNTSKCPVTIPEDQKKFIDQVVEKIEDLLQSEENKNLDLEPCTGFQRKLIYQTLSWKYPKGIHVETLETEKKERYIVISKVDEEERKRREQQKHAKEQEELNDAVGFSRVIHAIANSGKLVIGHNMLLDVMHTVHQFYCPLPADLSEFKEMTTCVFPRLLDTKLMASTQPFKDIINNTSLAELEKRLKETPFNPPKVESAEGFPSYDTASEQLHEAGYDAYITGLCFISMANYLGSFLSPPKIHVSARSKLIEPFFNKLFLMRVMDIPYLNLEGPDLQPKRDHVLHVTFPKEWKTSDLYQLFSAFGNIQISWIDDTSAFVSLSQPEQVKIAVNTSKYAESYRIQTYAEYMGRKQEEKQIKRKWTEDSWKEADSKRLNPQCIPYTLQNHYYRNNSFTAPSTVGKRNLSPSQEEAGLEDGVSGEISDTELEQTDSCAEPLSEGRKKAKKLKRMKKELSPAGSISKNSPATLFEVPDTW
T9 sequence (Q9H3P2 whole entry): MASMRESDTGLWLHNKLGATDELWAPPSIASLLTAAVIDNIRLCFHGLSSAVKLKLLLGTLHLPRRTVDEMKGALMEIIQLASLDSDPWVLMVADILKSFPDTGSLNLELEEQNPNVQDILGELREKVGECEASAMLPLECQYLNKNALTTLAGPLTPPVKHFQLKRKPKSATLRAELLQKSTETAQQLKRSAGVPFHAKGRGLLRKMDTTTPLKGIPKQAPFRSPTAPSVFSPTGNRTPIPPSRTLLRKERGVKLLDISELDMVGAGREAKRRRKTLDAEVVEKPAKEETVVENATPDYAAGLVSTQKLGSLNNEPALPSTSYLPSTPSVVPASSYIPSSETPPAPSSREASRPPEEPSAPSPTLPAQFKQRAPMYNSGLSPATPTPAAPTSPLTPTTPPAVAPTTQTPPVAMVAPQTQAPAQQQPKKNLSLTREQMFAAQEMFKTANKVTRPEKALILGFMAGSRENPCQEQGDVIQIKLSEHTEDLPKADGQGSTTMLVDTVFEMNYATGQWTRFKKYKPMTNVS
T14 sequence (Q92889 whole entry): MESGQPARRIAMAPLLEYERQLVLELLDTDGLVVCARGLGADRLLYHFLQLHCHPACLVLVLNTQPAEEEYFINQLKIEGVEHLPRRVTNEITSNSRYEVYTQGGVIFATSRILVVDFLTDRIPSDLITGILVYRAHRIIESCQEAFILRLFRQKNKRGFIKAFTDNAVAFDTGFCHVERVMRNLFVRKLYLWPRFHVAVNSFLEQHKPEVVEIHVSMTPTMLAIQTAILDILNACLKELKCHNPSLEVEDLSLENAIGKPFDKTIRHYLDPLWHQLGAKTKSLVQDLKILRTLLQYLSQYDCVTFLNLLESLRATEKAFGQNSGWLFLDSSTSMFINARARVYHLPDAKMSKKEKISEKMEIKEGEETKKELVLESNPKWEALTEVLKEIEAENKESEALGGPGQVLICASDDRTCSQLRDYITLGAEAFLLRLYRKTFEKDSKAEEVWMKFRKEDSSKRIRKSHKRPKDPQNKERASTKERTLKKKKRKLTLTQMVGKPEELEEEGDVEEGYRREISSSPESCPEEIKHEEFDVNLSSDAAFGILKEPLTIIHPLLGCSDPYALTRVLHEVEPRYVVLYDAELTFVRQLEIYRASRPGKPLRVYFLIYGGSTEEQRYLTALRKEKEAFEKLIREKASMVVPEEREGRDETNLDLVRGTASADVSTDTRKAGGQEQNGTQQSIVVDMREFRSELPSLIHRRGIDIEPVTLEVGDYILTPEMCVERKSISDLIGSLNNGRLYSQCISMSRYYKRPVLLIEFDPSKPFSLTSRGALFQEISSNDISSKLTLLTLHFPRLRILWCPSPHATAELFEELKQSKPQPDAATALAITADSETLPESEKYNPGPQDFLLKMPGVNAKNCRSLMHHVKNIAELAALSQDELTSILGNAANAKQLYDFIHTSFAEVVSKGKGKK
T4 sequence (Q92974 whole entry): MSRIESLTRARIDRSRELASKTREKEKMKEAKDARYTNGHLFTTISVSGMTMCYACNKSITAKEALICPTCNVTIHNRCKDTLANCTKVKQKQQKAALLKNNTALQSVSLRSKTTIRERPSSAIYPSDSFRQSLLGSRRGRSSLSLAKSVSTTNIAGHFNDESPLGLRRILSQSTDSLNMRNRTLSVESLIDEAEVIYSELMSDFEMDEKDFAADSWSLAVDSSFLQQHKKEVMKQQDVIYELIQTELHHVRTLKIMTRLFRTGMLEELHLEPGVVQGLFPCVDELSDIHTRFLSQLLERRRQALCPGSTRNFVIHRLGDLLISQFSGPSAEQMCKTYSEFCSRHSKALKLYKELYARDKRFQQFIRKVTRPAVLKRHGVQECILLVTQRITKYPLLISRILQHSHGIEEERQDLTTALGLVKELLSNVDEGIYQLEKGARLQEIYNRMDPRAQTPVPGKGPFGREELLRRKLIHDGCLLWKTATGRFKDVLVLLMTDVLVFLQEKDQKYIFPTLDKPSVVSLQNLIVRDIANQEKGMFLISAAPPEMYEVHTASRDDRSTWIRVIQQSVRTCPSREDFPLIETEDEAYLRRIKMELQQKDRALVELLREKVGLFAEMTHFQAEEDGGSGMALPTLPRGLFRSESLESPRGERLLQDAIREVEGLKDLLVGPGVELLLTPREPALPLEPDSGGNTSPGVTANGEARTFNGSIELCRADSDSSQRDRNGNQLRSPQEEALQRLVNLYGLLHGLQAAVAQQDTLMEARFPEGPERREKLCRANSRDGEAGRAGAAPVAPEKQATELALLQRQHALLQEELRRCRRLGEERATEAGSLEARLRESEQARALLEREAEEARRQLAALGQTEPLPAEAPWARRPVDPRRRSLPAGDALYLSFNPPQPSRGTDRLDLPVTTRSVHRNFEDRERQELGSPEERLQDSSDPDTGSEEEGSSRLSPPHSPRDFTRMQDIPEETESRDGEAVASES

O=C(NC1CC1)c1ccc(S(=O)(=O)n2cncn2)cc1 [HHS-0101, 4-((1H-1,2,4-triazol-1-yl)sulfonyl)-N-cyclopropylbenzamide]
liganded tyrosine site 113 (P28482): HHS0101.Y (tyrosine sites that showed >80% reductions (SR >5) in probe labeling in cells treated with compounds (liganded sites)) | liganded tyrosine site 250 (P13674): HHS0101.Y (tyrosine sites that showed >80% reductions (SR >5) in probe labeling in cells treated with compounds (liganded sites)) | liganded tyrosine site 237 (Q9BWD1): HHS0101.Y|HHS0201.Y|HHS0301.Y|HHS0401.Y (tyrosine sites that showed >80% reductions (SR >5) in probe labeling in cells treated with compounds (liganded sites)) | liganded tyrosine site 894 (Q92974): HHS0101.Y|HHS0401.Y (tyrosine sites that showed >80% reductions (SR >5) in probe labeling in cells treated with compounds (liganded sites)) | liganded tyrosine site 289 (Q9HCH5): HHS0101.Y|HHS0201.Y|HHS0301.Y|HHS0401.Y|HHS0701.Y (tyrosine sites that showed >80% reductions (SR >5) in probe labeling in cells treated with compounds (liganded sites)) | liganded tyrosine site 430 (P26599): HHS0101.Y|HHS0201.Y|HHS0401.Y (tyrosine sites that showed >80% reductions (SR >5) in probe labeling in cells treated with compounds (liganded sites)) | liganded tyrosine site 1008 (A6NKT7): HHS0101.Y (tyrosine sites that showed >80% reductions (SR >5) in probe labeling in cells treated with compounds (liganded sites)) | liganded tyrosine site 183 (Q5VTE0): HHS0101.Y (tyrosine sites that showed >80% reductions (SR >5) in probe labeling in cells treated with compounds (liganded sites)) | liganded tyrosine site 127 (Q6IS14): HHS0101.Y|HHS0201.Y|HHS0701.Y (tyrosine sites that showed >80% reductions (SR >5) in probe labeling in cells treated with compounds (liganded sites))

O=C(NCC1CC1)c1ccc(S(=O)(=O)n2cncn2)cc1 [HHS-0201, 4-((1H-1,2,4-triazol-1-yl)sulfonyl)-N-(cyclopropylmethyl)benzamide]
liganded tyrosine site 383 (Q9UPP1): HHS0201.Y (tyrosine sites that showed >80% reductions (SR >5) in probe labeling in cells treated with compounds (liganded sites)) | liganded tyrosine site 864 (P07814): HHS0201.Y (tyrosine sites that showed >80% reductions (SR >5) in probe labeling in cells treated with compounds (liganded sites)) | liganded tyrosine site 213 (Q8NFI4): HHS0201.Y (tyrosine sites that showed >80% reductions (SR >5) in probe labeling in cells treated with compounds (liganded sites))

O=C(NCc1ccccc1)c1ccc(S(=O)(=O)n2cncn2)cc1 [HHS-0401, 4-((1H-1,2,4-triazol-1-yl)sulfonyl)-N-benzylbenzamide]
liganded tyrosine site 324 (Q9H3P2): HHS0401.Y|HHS0701.Y (tyrosine sites that showed >80% reductions (SR >5) in probe labeling in cells treated with compounds (liganded sites)) | liganded tyrosine site 161 (O95453): HHS0401.Y (tyrosine sites that showed >80% reductions (SR >5) in probe labeling in cells treated with compounds (liganded sites)) | liganded tyrosine site 327 (P51003): HHS0401.Y|HHS0701.Y (tyrosine sites that showed >80% reductions (SR >5) in probe labeling in cells treated with compounds (liganded sites)) | liganded tyrosine site 119 (Q8N0Y7): HHS0401.Y (tyrosine sites that showed >80% reductions (SR >5) in probe labeling in cells treated with compounds (liganded sites)) | liganded tyrosine site 264 (O15523): HHS0401.Y (tyrosine sites that showed >80% reductions (SR >5) in probe labeling in cells treated with compounds (liganded sites))

O=C(c1ccc(S(=O)(=O)n2cncn2)cc1)N1CCC(c2ccccc2)CC1 [HHS-0701, (4-((1H-1,2,4-triazol-1-yl)sulfonyl)phenyl)(4-phenylpiperidin-1-yl)methanone]
liganded tyrosine site 188 (P43490): HHS0701.Y (tyrosine sites that showed >80% reductions (SR >5) in probe labeling in cells treated with compounds (liganded sites))

O=C(NC1CCCCC1)c1ccc(S(=O)(=O)n2cncn2)cc1 [HHS-0301, 4-((1H-1,2,4-triazol-1-yl)sulfonyl)-N-cyclohexylbenzamide]
liganded tyrosine site 22 (Q9BTC8): HHS0301.Y (tyrosine sites that showed >80% reductions (SR >5) in probe labeling in cells treated with compounds (liganded sites)) | liganded tyrosine site 344 (Q92889): HHS0301.Y|HHS0401.Y (tyrosine sites that showed >80% reductions (SR >5) in probe labeling in cells treated with compounds (liganded sites)) | liganded tyrosine site 173 (Q9Y5K3): HHS0301.Y (tyrosine sites that showed >80% reductions (SR >5) in probe labeling in cells treated with compounds (liganded sites))
